Test system: Mv1Lu cells
Test: [Methyl-3H]thymidine incorporation (DNA synthesis), Mv1Lu cells
Format: cell-based, mink
Method: (A, B, C, D, E, F) Cells were treated with 50 μg/ml cholesterol (A, B, C, D) and 50 μg/ml LDL (D) at 37° C. for 1 hr or with 1 μM fluvastatin or lovastatin (E) or several concentrations of fluvastatin (F) at 37° C. for 16 hr and then further incubated with increasing concentrations (as indicated) of TGF-β1 (A, B, C, E) or 50 pM TGF-β1 (D,F) for 2 hr. Northern blot analysis of PAI-1 and G3PDH was performed. A representative of a total of three analyses is shown (a). The relative intensities of the transcripts were quantified with a PhosphoImager. The ratio of the relative intensities of PAI-1 and G3PDH transcripts in cells treated without TGF-β1 and cholesterol, LDL or statins on the blot was taken as 1 fold or 100% of PAI-1 expression. The quantitative data from three independent analyses is shown (b). […] (G) Mv1Lu cells stably expressing a luciferase reporter gene driven by the PAI-1 promoter (MLECs-clone 32) were treated with increasing concentrations (as indicated) of cholesterol at 37 EC for 1 hr (a) or with 1 μM lovastatin at 37° C. for 16 hr (b) and then further incubated with 50 pM TGF-β for 7 hr. The luciferase activity in cells treated without cholesterol was taken as 100% (a). […] (H) Cells were incubated with 0.0625 and 0.125 pM TGF-β1 in the presence of increasing concentrations of cholesterol, as indicated. After 18 hr at 37° C., cell growth was determined by measurement of [^3H-methyl]thymidine incorporation into cellular DNA (a). The [^3H-methyl]thymidine incorporation in cells treated with vehicle only (T1); with TGF-β1 (T2); with cholesterol (T3); with cholesterol and TGF-β1 (T4) was measured. T1 was taken as 100%. The degree (%) of cholesterol-mediated reversal of TGF-β1 growth inhibition was estimated by the equation: % reversal=[1−(T3−T4/T1−T2)]×100 Cholesterol appeared to reverse TGF-β1 growth inhibition in a dose-dependent manner (b). The experiments were carried out in triplicate.
The growth of cholesterol-treated cells was determined by measurement of [methyl-^3H]thymidine incorporation into cellular DNA as described (30). Briefly, cells grown near confluence on 48-well clustered dishes were treated with several concentrations of cholesterol at 37° C. for 1 hr in serum-free DMEM. The final concentration of ethanol (the vehicle for cholesterol) in the medium was 0.2%. […] The [methyl-^3H]thymidine incorporation into cellular DNA was then determined by incubation of cells with [methyl-^3H]thymidine at 37° C. for 2 hr in DMEM containing 0.1% fetal calf serum. […]
Another prominent biological activity of TGF-β is growth inhibition of many different cell types. […] DNA synthesis was then determined by measurement of [^3H-methyl]thymidine incorporation into cellular DNA (FIG. 2Ha). […]

CC(C)CCC[C@@H](C)[C@H]1CC[C@H]2[C@@H]3CC=C4C[C@@H](O)CC[C@]4(C)[C@H]3CC[C@]12C [cholesterol]
reversal of DNA synthesis inhibition induced by TGF-β1 (8 μg/ml, 0.0625 and 0.125 pM TGF-β1, 18 hr): almost completely reversed | effect on DNA synthesis, alone (6 and 8 μg/ml, without TGF-β1): inhibited

From patent US8946201B2, “Methods for inhibiting TGF-β” (Saint Louis University, priority 2007, dated 2015)
